Literature values in patent publication US20200121704A1, “METHODS FOR TREATING HYPERTENSION AND ARTERIAL STIFFNESS” (THE REGENTS OF THE UNIVERSITY OF COLORADO, A BODY CORPORATE, priority 2017, published 2020).

What was measured:
Klotho deficient mice = settings: cited from earlier work
old mice = settings: supplementation; cited from earlier work
endothelial cells = settings: cited from earlier work
ET-1 = settings: animal models of hypercholesterolemia and cardiac hypertrophy; cited from earlier work

O=C(Nc1ccccc1-c1cn2c(CN3CCNCC3)csc2n1)c1cnc2ccccc2n1 [SRT1720]
Development of hypertension (Klotho deficient mice; Klotho deficient mice (a model of accelerated aging)): protects against the development of hypertension | Development of arterial stiffness (Klotho deficient mice; klotho deficient mice): prevented the development of arterial stiffness

NC(=O)c1ccc[n+]([C@@H]2O[C@H](COP(=O)([O-])O)[C@@H](O)[C@H]2O)c1 [NMN, nicotinamide mononucleotide]
Aortic stiffening (old mice): reverses aortic stiffening in old mice to youthful levels

Oc1ccc(C=Cc2cc(O)cc(O)c2)cc1 [resveratrol]
Secretion of ET-1 by endothelial cells (endothelial cells): suppressed | Circulating ET-1 levels (ET-1): decreases circulating ET-1 levels
